According to US20190053492A1, “SUBSTITUTED PYRIDINE COMPOUNDS AS PESTICIDES” (Bayer CropScience Aktiengesellschaft, priority 2016, published 2019):
Where two headings read alike, the source gives them in different places.

Experiments:
Spodoptera frugiperda = Spodoptera frugiperda spray test; type: in vivo; settings: application rate 500 g/ha, after 7 days, maize leaf discs
Method: Spodoptera frugiperda—Spray Test
Solvent: 78.0 parts by weight of acetone • • 1.5 parts by weight of dimethylformamide
Emulsifier: alkylaryl polyglycol ether
To produce a suitable active ingredient formulation, 1 part by weight of active ingredient is dissolved with the specified parts by weight of solvent and made up with water containing an emulsifier concentration of 1000 ppm until the desired concentration is attained. To produce further test concentrations, the formulation is diluted with emulsifier-containing water.
Leaf discs of maize (Zea mays) are sprayed with an active ingredient formulation of the desired concentration and, after drying, populated with caterpillars of the armyworm (Spodoptera frugiperda).
After 7 days, the efficacy in % is determined. 100% means that all the caterpillars have been killed; 0% means that no caterpillar has been killed.

[1] = log P by HPLC on reversed-phase column (C 18), EEC Directive 79/831 Annex V.A8; type: physicochemical; settings: 55° C.; for LOGP_HCOOH: log P (HCOOH); for chromatographic logP: reversed-phase HPLC column (C 18)
Method: Temperature: 55° C. […] Called log P (HCOOH) in the table. […] Called log P (neutral) in the table.

[2] = acidic range at pH 2.7, 0.1% aqueous formic acid and acetonitrile, HPLC on reversed-phase column (C 18)
[3] = log P, neutral range, HPLC on reversed-phase column (C 18)
[4] = pH 2.7, LC-MS acidic range, pH 2.7, 0.1% formic acid/acetonitrile, read-out: log P (acidic) / log P (HCOOH)
[5] = pH 7.8, LC-MS neutral range, pH 7.8, ammonium hydrogencarbonate/acetonitrile, read-out: log P (neutral)
[6] = acidic range pH 2.7, 0.1% aqueous formic acid and acetonitrile, reversed-phase column (C 18)

Row | Compound | LOGP_NEUTRAL [1, 3] | chromatographic logP [1, 4] | chromatographic logP [1, 5] | LOGP_HCOOH [1, 6] | further results
1 | CC(NC(=O)c1cc(-c2ccc(OC(F)(F)F)cc2)cc(NC(=O)C2CC2)n1)c1ccc(C#N)cc1 (single isomer, unassigned) [Example I-219] | 4.02 |  |  |  | efficacy (caterpillars killed) (Spodoptera frugiperda): 83%; LOGP_HCOOH [1, 2]: 4.17
2 | O=C(O)c1cc(-c2ccc(OC(F)(F)F)cc2)cc(NC(=O)C2CC2)n1 [6-[(Cyclopropylcarbonyl)amino]-4-[4-(trifluoromethoxy)phenyl]pyridine-2-carboxylic acid] |  | 2.72 | 1.25 |  | 
3 | N#Cc1cccc(CNC(=O)c2cc(-c3ccc(F)cc3)cc(NC(=O)C3CC3)n2)c1 [Example I-001] |  |  |  | 3.26 | 
4 | O=C(NCc1cccc(F)c1)c1cc(-c2ccc(C(F)(F)F)cc2)cc(NC(=O)C2CC2)n1 [Example I-003] |  |  |  | 4.24 | efficacy (caterpillars killed) (Spodoptera frugiperda): 83%
5 | O=C(NCc1cccc(Cl)c1)c1cc(-c2ccc(C(F)(F)F)cc2)cc(NC(=O)C2CC2)n1 [Example I-006] | 4.43 |  |  | 4.49 | efficacy (caterpillars killed) (Spodoptera frugiperda): 100%
6 | O=C(NCc1ccc(Cl)cc1Cl)c1cc(-c2ccc(C(F)(F)F)cc2)cc(NC(=O)C2CC2)n1 [Example I-010] | 4.89 |  |  | 5.00 | efficacy (caterpillars killed) (Spodoptera frugiperda): 100%
7 | CC(C)C(=O)Nc1cc(-c2ccc(C(F)(F)F)cc2)cc(C(=O)NCc2ccc(Cl)nc2)n1 [Example I-014] | 3.81 |  |  | 3.88 | efficacy (caterpillars killed) (Spodoptera frugiperda): 80%
8 | N#Cc1ccc(CNC(=O)c2cc(-c3ccc(C(F)(F)F)cc3)cc(NC(=O)c3ccc(Cl)cc3)n2)cc1 [Example I-023] | 4.66 |  |  | 4.77 | efficacy (caterpillars killed) (Spodoptera frugiperda): 83%
9 | N#Cc1ccc(CNC(=O)c2cc(-c3ccc(OC(F)F)cc3)cc(NC(=O)C3CC3)n2)cc1 [Example I-029] | 3.21 |  |  | 3.28 | efficacy (caterpillars killed) (Spodoptera frugiperda): 83%
10 | CC(C)CNC(=O)c1cc(-c2ccc(C(F)(F)F)cc2)cc(NC(=O)C2CC2)n1 [Example I-032] | 3.98 |  |  | 4.06 | efficacy (caterpillars killed) (Spodoptera frugiperda): 100%
11 | O=C(NC1CCC1)c1cc(-c2ccc(C(F)(F)F)cc2)cc(NC(=O)C2CC2)n1 [Example I-033] | 3.80 |  |  | 3.88 | efficacy (caterpillars killed) (Spodoptera frugiperda): 100%
12 | CN(C(=O)c1cc(-c2ccc(C(F)(F)F)cc2)cc(NC(=O)C2CC2)n1)c1cccnc1 [Example I-034] | 2.72 |  |  | 2.73 | efficacy (caterpillars killed) (Spodoptera frugiperda): 100%
13 | N#Cc1ccc(CCNC(=O)c2cc(-c3ccc(C(F)(F)F)cc3)cc(NC(=O)C3CC3)n2)cc1 [Example I-046] | 3.76 |  |  | 3.80 | efficacy (caterpillars killed) (Spodoptera frugiperda): 83%
14 | N#Cc1ccc(CNC(=O)c2cc(-c3ccc(C(F)(F)F)cc3)cc(NC(=O)c3ccccc3Cl)n2)cc1 [Example I-047] | 4.15 |  |  | 4.26 | efficacy (caterpillars killed) (Spodoptera frugiperda): 83%
15 | CC(C)C(=O)Nc1cc(-c2ccc(C(F)(F)F)cc2)cc(C(=O)NCc2cc(F)c(C#N)c(F)c2)n1 [Example I-072] | 4.04 |  |  | 4.23 | 
16 | O=C(NC1CCCCC1)c1cc(-c2ccc(OC(F)(F)F)cc2)cc(NC(=O)C2CC2)n1 [Example I-168] | 4.57 |  |  |  | LOGP_HCOOH [1, 2]: 4.74
17 | N#Cc1ccc(CNC(=O)c2cc(-c3ccc(OC(F)=C(F)F)cc3)cc(NC(=O)C3CC3)n2)cc1 [Example I-171] | 3.82 |  |  |  | LOGP_HCOOH [1, 2]: 3.96
18 | CON(C)C(=O)c1cc(-c2ccc(OC(F)(F)F)cc2)cc(NC(=O)C2CC2)n1 [Example I-183] | 3.18 |  |  |  | LOGP_HCOOH [1, 2]: 3.22
19 | N#CC1CCN(C(=O)c2cc(-c3ccc(OC(F)(F)F)cc3)cc(NC(=O)C3CC3)n2)CC1 [Example I-199] |  |  |  |  | LOGP_HCOOH [1, 2]: 3.21
20 | N#Cc1ccc(CNC(=O)c2cc(-c3ccc(OC(F)(F)F)cc3)cc(NC(=O)C3(C4CC4)CC3)n2)cc1 [Example I-203] | 3.32 |  |  |  | 
21 | N#Cc1ccc(CNC(=O)c2cc(-c3ccc(C(F)(F)C(F)(F)F)c(F)c3Cl)cc(NC(=O)C3CC3)n2)cc1 [Example I-266] |  |  |  | 4.34 | 

Row | Compound | LOGP_NEUTRAL [1, 3] | chromatographic logP [1, 4] | chromatographic logP [1, 5] | LOGP_HCOOH [1, 6] | further results
22 | Cc1cc(-c2cc(NC(=O)C3CC3)nc(C(=O)NCc3ccc(C#N)cc3)c2)cc(F)c1C(F)(F)C(F)(F)F [Example I-267] |  |  |  | 4.45 | 
23 | N#Cc1ccc(CNC(=O)c2cc(-c3cc(F)c(C(F)(F)C(F)(F)F)cc3F)cc(NC(=O)C3CC3)n2)cc1 [Example I-275] |  |  |  | 4.11 | 
24 | N#Cc1ccc(CNC(=O)c2cc(-c3cc(F)c(C(F)(F)C(F)(F)F)c(Cl)c3)cc(NC(=O)C3CC3)n2)cc1 [Example I-278] |  |  |  | 4.67 | LOGP_NEUTRAL ([1]; log P (neutral), HPLC reversed-phase column (C 18)): 4.52
25 | N#Cc1ccc(CNC(=O)c2cc(B(O)O)cc(NC(=O)C3CC3)n2)cc1 [Example X-1b, {2-[(4-Cyanobenzyl)carbamoyl]-6-[(cyclopropylcarbonyl)amino]pyridin-4-yl}boric acid] |  | 1.58 | 1.25 |  | 
26 | FC(F)(F)Oc1ccc(-c2cc(Cl)nc(Cl)c2)cc1 [XIV-1, 2,6-Dichloro-4-[4-(trifluoromethoxy)phenyl]pyridine] |  | 4.63 | 4.62 |  | 
27 | Fc1cc(-c2cc(Cl)nc(Cl)c2)ccc1C(F)(F)C(F)(F)F [XIV-2, 2,6-Dichloro-4-[3-fluoro-4-(pentafluoroethyl)phenyl]pyridine] |  | 4.92 | 4.97 |  | 
28 | Nc1cc(-c2ccc(Cl)cc2)cc(C(=O)O)n1 [XIX-1, 6-Amino-4-(4-chlorophenyl)pyridine-2-carboxylic acid] |  | 1.02 |  |  | 
29 | C=Cc1cc(-c2ccc(OC(F)(F)F)cc2)cc(Cl)n1 [XV-1, 2-Chloro-4-[4-(trifluoromethoxy)phenyl]-6-vinylpyridine] |  | 4.77 | 4.72 |  | 
30 | O=C(O)c1cc(-c2ccc(OC(F)(F)F)cc2)cc(Cl)n1 [XVI-1, 6-Chloro-4-[4-(trifluoromethoxy)phenyl]pyridine-2-carboxylic acid] |  | 3 | 1.17 |  | 
31 | N#Cc1ccc(CNC(=O)c2cc(-c3ccc(OC(F)(F)F)cc3)cc(Cl)n2)cc1 [XVII-1, 6-Chloro-N-(4-cyanobenzyl)-4-[4-(trifluoromethoxy)phenyl]pyridine-2-carboxamide] |  | 4.23 | 4.19 |  | 
32 | CNc1cc(-c2ccc(OC(F)(F)F)cc2)cc(C(=O)NCc2ccc(C#N)cc2)n1 [XVIII-1, N-(4-Cyanobenzyl)-6-(methylamino)-4-[4-(trifluoromethoxy)phenyl]pyridine-2-carboxamide] |  | 3.63 | 3.63 |  | 
33 | N#Cc1ccc(CNC(=O)c2cc(-c3ccc(Cl)cc3)cc(N)n2)cc1 [XX-1, 6-Amino-4-(4-chlorophenyl)-N-(4-cyanobenzyl)pyridine-2-carboxamide] |  |  | 2.82 |  | 
34 | CN(C(=O)c1cc(-c2ccc(C(F)(F)F)cc2)cc(N)n1)C1CC1 [XX-2, 6-Amino-N-cyclopropyl-N-methyl-4-[4-(trifluoromethyl)phenyl]pyridine-2-carboxamide] |  |  | 2.4 |  | 
35 | N#Cc1ccc(CNC(=O)c2cc(-c3ccc(C(F)(F)F)cc3)cc(N)n2)cc1F [XX-3, 6-Amino-N-(4-cyano-3-fluorobenzyl)-4-[4-(trifluoromethyl)phenyl]pyridine-2-carboxamide] |  |  | 3.19 |  | 
36 | Nc1cc(-c2ccc(C(F)(F)C(F)(F)F)c(F)c2)cc(Cl)n1 [XXI-1, 6-Chloro-4-[3-fluoro-4-(pentafluoroethyl)phenyl]pyridin-2-amine] |  | 3.85 | 3.83 |  | 
37 | O=C(Nc1cc(-c2ccc(C(F)(F)C(F)(F)F)c(F)c2)cc(Cl)n1)C1CC1 [XXII-1, N-{6-Chloro-4-[3-fluoro-4-(pentafluoroethyl)phenyl]pyridin-2-yl}cyclopropanecarboxamide] |  | 4.76 | 4.64 |  | 
38 | NC(=O)c1cc(-c2ccc(C(F)(F)C(F)(F)F)c(F)c2)cc(NC(=O)C2CC2)n1 [XXIII-1, 6-[(Cyclopropylcarbonyl)amino]-4-[3-fluoro-4-(pentafluoroethyl)phenyl]pyridine-2-carboxamide] |  | 3.18 | 3.17 |  | 
39 | COC(=O)c1cc(-c2ccc(OC(F)(F)F)cc2)cc(NC(=O)C2CC2)n1 [XXIII-2, Methyl 6-[(cyclopropylcarbonyl)amino]-4-[4-(trifluoromethoxy)phenyl]pyridine-2-carboxylate] |  | 3.63 | 3.54 |  | 
40 | NNC(=O)c1cc(-c2ccc(OC(F)(F)F)cc2)cc(NC(=O)C2CC2)n1 [XXIV-1, N-{6-(Hydrazinocarbonyl)-4-[4-(trifluoromethoxy)phenyl]pyridin-2-yl}cyclopropanecarboxamide] |  | 2.57 | 2.55 |  | 
41 | N#Cc1cc(-c2ccc(OC(F)(F)F)cc2)cc(NC(=O)C2CC2)n1 [XXIX-1, N-{6-Cyano-4-[4-(trifluoromethoxy)phenyl]pyridin-2-yl}cyclopropanecarboxamide] |  | 3.85 | 3.89 |  | 
